{
  "source": "patent USRE35230E",
  "about": "(priority 1994, dated 1996)",
  "key": {"(R)-oxynitrilase": {"tested_on": "(R)-oxynitrilase", "assay": "Relative rates of dehydrocyanation of cyanohydrins by soluble (R)-oxynitrilase (initial rate studies)", "format": "biochemical", "conditions": "0.21 mM cyanohydrin, dehydrocyanation relative to benzaldehyde cyanohydrin", "experimental": "The following standardized assay was utilized to measure the activity of oxynitrilase set forth in the Examples which follow. A solution of enzyme was prepared in 0.1M (pH 5.5) citrate buffer. A 3-ml sample of enzyme solution was combined with 30 microliters of 0.21M benzaldehyde cyanohydrin and the rate of increase in absorbance at 250 nm recorded. Then, the same procedure was followed with a 3-ml sample of 0.1M (pH 5.5) citrate buffer to obtain the background, non-enzymatic, reaction. The activity in units/ml was calculated by subtracting the slope of the non-enzymatic reaction from the slope of the enzymatic reaction and converting the absorbance change with time to concentration change with time using a molar extinction coefficient of 13,200 M^-1 cm^-1.\nRelative rates of dehydrocyanation of different cyanohydrins subjected to the action of the soluble catalyst (R)-oxynitrilase were determined from initial rate studies. A solution of (R)-oxynitrilase was combined with a 0.21 mM solution of cyanohydrin and the rate of increase of absorbance at the wavelength corresponding to the absorption maxima was monitored as described above in connection with the measurement of catalyst activity. The measured activity was calculated using the appropriate extinction coefficient for the corresponding aldehyde."}, "[1]": {"assay": "Permeability in supported-gas membrane system of FIG. 1", "conditions": "both dehydrocyanation products approximately equal"}, "[2]": {"conditions": "benzaldehyde cyanohydrin to benzaldehyde and hydrogen cyanide; cited from earlier work"}},
  "data": [
    {"smiles": "COc1ccc(C(O)C#N)cc1", "note": "(stereo not drawn) [p-Anisaldehyde cyanohydrin]", "values": [
      {"measurement": "Relative Rate", "setting": "(R)-oxynitrilase", "value": 0.17}
    ]},
    {"smiles": "CC=CC(O)C#N", "note": "(stereo not drawn) [Crotonaldehyde cyanohydrin]", "values": [
      {"measurement": "Relative Rate", "setting": "(R)-oxynitrilase", "value": 0.90}
    ]},
    {"smiles": "Cc1ccc(C(O)C#N)cc1", "note": "(stereo not drawn) [P-Tolualdehyde cyanohydrin]", "values": [
      {"measurement": "Relative Rate", "setting": "(R)-oxynitrilase", "value": 0.45}
    ]},
    {"smiles": "CCc1ccc(C(O)C#N)cc1", "note": "(stereo not drawn) [p-Ethylbenzaldehyde cyanohydrin]", "values": [
      {"measurement": "Relative Rate", "setting": "(R)-oxynitrilase", "value": 0.13}
    ]},
    {"smiles": "O=Cc1ccccc1", "note": "[benzaldehyde]", "values": [
      {"measurement": "average permeability relative to the permeability of benzaldehyde cyanohydrin", "setting": "[1]", "value": "roughly 700 times"}
    ]},
    {"smiles": "N#CC(O)C=Cc1ccccc1", "note": "(stereo not drawn) [Cinnamaldehyde cyanohydrin]", "values": [
      {"measurement": "Relative Rate", "setting": "(R)-oxynitrilase", "value": 0.05}
    ]},
    {"smiles": "Cc1ccc(C(O)C#N)o1", "note": "(stereo not drawn) [5-Methylfurfural cyanohydrin]", "values": [
      {"measurement": "Relative Rate", "setting": "(R)-oxynitrilase", "value": 2.8}
    ]},
    {"smiles": "N#CC(O)c1ccc2c(c1)OCO2", "note": "(stereo not drawn) [Piperonal cyanohydrin]", "values": [
      {"measurement": "Relative Rate", "setting": "(R)-oxynitrilase", "value": 2.1}
    ]},
    {"smiles": "N#CC(O)c1ccccc1", "note": "(stereo not drawn) [Benzaldehyde cyanohydrin, reference compound]", "values": [
      {"measurement": "Relative Rate", "setting": "(R)-oxynitrilase", "value": 1.0},
      {"measurement": "dehydrocyanation equilibrium constant", "setting": "[2]", "value": 5, "unit": "mM"}
    ]},
    {"smiles": "COc1cccc(C(O)C#N)c1", "note": "(stereo not drawn) [m-Anisaldehyde cyanohydrin]", "values": [
      {"measurement": "Relative Rate", "setting": "(R)-oxynitrilase", "value": 0.19}
    ]},
    {"smiles": "N#CC(O)c1ccco1", "note": "(stereo not drawn) [Furfural cyanohydrin]", "values": [
      {"measurement": "Relative Rate", "setting": "(R)-oxynitrilase", "value": 2.5}
    ]}
  ]
}
